This note sets out measurements from US8362064B2, “Sulfonamide compounds for the treatment of respiratory disorders” (Pulmagen Theraputics (Inflammation) Limited, priority 2008, dated 2013).

As usually defined, the melting point is the temperature, or range, at which the solid turns liquid.

One series deals with T1, human PPARγ (Homo sapiens, UniProt P37231).
T1 construct: expressed in transfected cells; host or cells: HEK-293 (Human Embryonic Kidney) cells
T1 sequence (P37231 1-505): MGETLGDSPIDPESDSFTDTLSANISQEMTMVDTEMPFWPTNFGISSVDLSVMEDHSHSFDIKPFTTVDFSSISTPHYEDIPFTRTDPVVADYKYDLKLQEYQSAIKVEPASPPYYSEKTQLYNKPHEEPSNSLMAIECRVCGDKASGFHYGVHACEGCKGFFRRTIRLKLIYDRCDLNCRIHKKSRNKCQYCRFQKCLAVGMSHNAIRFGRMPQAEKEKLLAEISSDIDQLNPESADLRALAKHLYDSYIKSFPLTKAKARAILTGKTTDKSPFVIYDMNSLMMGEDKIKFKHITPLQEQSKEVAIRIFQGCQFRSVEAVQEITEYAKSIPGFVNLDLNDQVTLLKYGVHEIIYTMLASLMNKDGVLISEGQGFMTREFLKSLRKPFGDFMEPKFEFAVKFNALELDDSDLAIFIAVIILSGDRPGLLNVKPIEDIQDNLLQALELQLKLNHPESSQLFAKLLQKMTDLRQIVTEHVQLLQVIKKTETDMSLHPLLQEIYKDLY
The series can be described thus: Human PPAR gamma agonist activity, GAL4-luciferase transactivation in transfected HEK-293 cells. To be noted: fold increase in gene transactivation (luciferase), 18 hours incubation, classes at 10 μM or 1 μM. It is filed as cell-based. The procedure:
HEK-293 (Human Embryonic Kidney) cells were seeded at a density of 2.8×10^5 cells/well in a 6 well plate in DMEM +10% delipidated FBS medium and incubated at 37° C., 5% CO2. At 70-80% confluency cells were transfected with human pCDNA3.1E˜PPARγ+pGL2˜GAL4x5˜Luc+pADV plasmids for 3 hours (ratio 2:0.25:1.25 μg/well). The transfection medium was then replaced with fresh medium and cells were incubated for 48 hours.
Varying final concentrations of compounds (vehicle=0.1% DMSO) of the invention were prepared in medium (50 μl/well) and added to the wells in a 96 well plate. Transfected cells were harvested and pelleted by centrifugation. The cell pellet was resuspended in medium and cells counted. 10,000 cells/well were added to the 96 well plate containing compounds of the invention and incubated for 18 hours. Luminescence produced following agonism of the PPAR gamma receptor was determined using Packard luciferase substrate reagent (100 μl/well). Light emission was quantified by counting SPC mode using a Top Count. Fold activation was calculated using the following formula: […]
All compounds show activity as PPAR gamma agonists at 30 μM. Key for relative activity: • *<8 fold increase in gene transactivation with 10 μM • **>8 fold increase in gene transactivation with 10 μM • ***>8 fold increase in gene transactivation with 1 μM.

The test system of series [1] is TS induced BAL neutrophil influx. The series can be described thus: Pre-clinical mouse model of COPD inflammation (tobacco smoke induced pulmonary inflammation), BAL neutrophil counts. It is filed as in vivo. To be noted: mice. As to the method:
Protocols for the exposure of mice to TS, obtaining bronchoalveolar lavage (BAL), preparation of cytospin slides for differential cell counts are as outlined below.
In this exposure protocol, mice were exposed in groups of 5 in individual clear polycarbonate chambers (27 cm×16 cm×12 cm). The TS from the cigarettes was allowed to enter the exposure chambers at a flow rate of 100 mL/min. In order to minimize any potential problems caused by repeated exposure to a high level of TS (6 cigarettes), the exposure of the mice to TS was increased gradually over the exposure period to a maximum of 6 cigarettes. The exposure schedule used for 4 days was as follows:
A further group of mice was exposed to air on a daily basis for an equivalent length of time as controls (no TS exposure).
Bronchoalveolar lavage was performed as follows: the trachea was cannulated using a Portex nylon intravenous cannula (pink luer fitting) shortened to approximately 8 mm. Phosphate buffered saline (PBS) was used as the lavage fluid. A volume of 0.4 mL was gently instilled and withdrawn 3 times using a 1 mL syringe and then placed in an Eppendorf tube and kept on ice prior to subsequent determinations.
Lavage fluid was separated from cells by centrifugation and the supernatant decanted and frozen for subsequent analysis. The cell pellet was re-suspended in a known volume of PBS and total cell numbers calculated by counting a stained (Turks stain) aliquot under a microscope using a haemocytometer.
The residual cell pellet was diluted to approximately 10^5 cells per mL. A volume of 500 μL was placed in the funnel of a cytospin slide and centrifuged for 8 min at 800 rpm. The slide was air dried and stained using ‘Kwik-Diff’ solutions (Shandon) as per the proprietary instructions. When dried and cover-slipped, differential cells were counted using light microscopy. Up to 400 cells were counted by unbiased operator using light microscopy. Cells were differentiated using standard morphometric techniques.
Mice were dosed intra-nasally (surrogate for oral inhalation) with vehicle (0.2% tween 80 in saline), Example 1 (0.1 mg/kg), Example 10 (0.1 mg/kg), Example 10 (0.03 mg/kg), or Example 10 (0.01 mg/kg), at 3 hours prior to tobacco smoke exposure each day. The control group of mice received vehicle 3 hrs prior to being exposed to air daily for a maximum of 50 minutes per day. BAL was performed 24 h following the final TS exposure.
In a separate experiment, mice were dosed intra-nasally (surrogate for oral inhalation) with either vehicle (0.2% tween 80 in saline), Example 7 (0.1 mg/kg), Compound 7 (0.03 mg/kg), Example 15 (0.1 mg/kg), or Example 15 (0.03 mg/kg), 1 hour prior to tobacco smoke exposure each day. The control group of mice received vehicle 1 hr prior to being exposed to air daily for a maximum of 50 minutes per day. BAL was performed 24 h following the final TS exposure.
All results are presented as individual data points for each animal and the mean value was calculated for each group. Since tests for normality were positive the data was subjected to a one way analysis of variance test (ANOVA), followed by a Bonferroni correction for multiple comparisons in order to test for significance between treatment groups. A “p” value of <0.05 was considered to be statistically significant. Percentage inhibitions were automatically calculated within the Excel spreadsheets for the cell data using the formula below:
[formula] Inhibition data for other parameters were calculated manually using the above formula.

`Cc1ccc(-n2cc(Oc3ccc(NS(=O)(=O)c4ccc(Cl)cc4Cl)cc3)cn2)cc1` [Example 1, 2,4-dichloro-N-[4-(1-p-tolyl-1H-pyrazol-4-yloxy)-phenyl]benzene sulfonamide]: the melting point is 152 to 153 °C. Further, on human PPARγ, the PPARγ agonist activity entry was “*** (>8 fold increase in gene transactivation with 1 μM)”. Also, the “Inhibition of TS induced BAL neutrophil influx” value in series [1] (0.1 mg/kg intra-nasally 3 hours prior to TS exposure each day for 4 days, BAL 24 h after final TS) is given as 72%. For the same compound, in series [1] (administered by a surrogate route for inhalation (intra-nasal)), the “TS induced influx of neutrophils in the BAL (in words)” value is “significantly inhibit”.
